Assay: xn = mol fraction of the nth substance listed
Conditions: 100 kPa

C[P+](c1ccccc1)(c1ccccc1)c1ccccc1.[Br-] + OCCO
viscosity [mPa·s]
Conditions	293.15 K	298.15 K	303.15 K	308.15 K	313.15 K	318.15 K	323.15 K
x1 = 0.1	45.5	–	27.4	22.37	–	15.1	12.6
x1 = 0.13	56.5	43.3	33.8	27.1	21.86	18.05	14.94
x1 = 0.17	74.7	55.7	43.5	34.5	27.3	21.01	17.81
x1 = 0.2	100.6	74.5	56.2	43.3	34	27.2	21.91
x1 = 0.25	148.7	106.7	78.9	60	46.4	36.4	29
x1 = 0.33	225	158	–	85.5	–	50.5	39.6

— a compilation of properties of binary mixtures (doi:10.1007/s10953-022-01241-4)
